Source: patent publication US20210130308A1, “MODULATORS OF EUKARYOTIC INITIATION FACTOR 2” (Denali Therapeutics Inc., priority 2018, published 2021)

Tested on: ATF4 translation (ISR pathway activation)
Assay: ATF4 Nano Luciferase reporter integrated stress response (ISR) assay in H4 ATF4-NLuc (clone 17) cells
Format: cell-based, human
Details: H4 ATF4-NLuc (clone 17) cells; compounds 30 minutes at 37 degree Celsius, then 50 um sodium arsenite for 6 additional hours; luminescence readout; read-out: IC50
Excerpt: Cellular stress leads to activation of the integrated stress response pathway through one of four eukaryotic initiation factor 2α kinases and halts global translation, while allowing for the translation of select transcripts like ATF4 (activating transcription factor 4) that are important for the response to cellular stress. During normal conditions, small open reading frames (ORFs) in the 5′ UTR of ATF4 occupy the ribosome and prevent translation of the coding sequence of ATF4. During stress conditions however, the ribosome scans past these upstream ORFs and preferentially begins translation at the coding sequence of ATF4. In this way, the translation, and thus protein level of ATF4 is a readout of ISR pathway activation. Thus, a fusion of the uORFs and the beginning of the coding sequence of ATF to a common cellular reporter like nano-luciferase allows for a sensitive and high-throughput readout of ISR pathway activity.
Compounds as provided herein were tested in the following assay. The ATF4 Nano Luciferase reporter was constructed by fusing the human full length 5′ untranslated region (5′-UTR) and a small portion of the coding sequence of the ATF4 gene upstream of the Nano Luciferase (NLuc) coding sequence lacking it's start codon. Specifically, nucleotides +1 through +364 (relative to the transcriptional start site) of ATF4 transcript variant 2 (NCBI NM_182810.2) flanked 5′ by EcoRI and 3′ by BamHI restriction enzyme sites were synthesized and cloned into the EcoRI/BamHI cloning sites of pLVX-EF1a-IRES-Puro lentivirus vector (Clontech). […]. H4 cells were selected with […] Puromycin, and clonal cell lines generated by limiting dilution. We utilized this cell line to generate an integrated stress response (ISR) assay to evaluate the activity of ISR pathway inhibitors via luminescence readout. The H4 ATF4-NLuc (clone 17) cell line is plated at a density of […] in 96-well or 384-well respectively in DMEM+10% fetal bovine serum. 24-hours later test compounds diluted in dimethyl sulfoxide (DMSO) are added for 30 minutes at 37 degree Celsius, followed by ISR pathway activation with 50 um sodium arsenite aqueous solution for 6 additional hours. Nano Glo luciferase reagent (N1150, Promega) is added according to manufacturer instructions and the luminescence signal (corresponding to the level of ATF4 translation and thus ISR pathway activation) is read with a standard plate reader with luminescence detection capabilities.
In the table below, activity of the tested compounds is provided in Table 3 as follows: +++=IC50<1 μM; ++=IC50 1-10 μM; +=IC50>10 μM.

Structure (SMILES)	IC50 [µM]
N#CC1CC(OCC(=O)NC23CC(NC(=O)COc4ccc(Cl)cc4)(C2)C3)C1 (stereo not drawn) [Example 31, 2-(4-chlorophenoxy)-N-[3-[[2-(3-cis-cyanocyclobutoxy)acetyl]amino]-1-bicyclo[1.1.1]pentanyl]acetamide]	< 1

Same assay, conditions: Homo sapiens, 0.5 h

Structure (SMILES)	IC50 [µM]
O=C(COc1cccc(Cl)c1F)NC12CC(NC(=O)COC3CCC3)(C1)C2 [Example 13, 2-(3-chloro-2-fluoro-phenoxy)-N-[3-[[2-(cyclobutoxy)acetyl]amino]-1-bicyclo[1.1.1]pentanyl]acetamide]	1 to 10
O=C(COc1ccc(Cl)cc1)N[C@H]1CC[C@H](c2nnc(C3CC(OC(F)(F)F)C3)o2)CC1 (stereo partly drawn) [Example 29, 2-(4-chlorophenoxy)-N-[4-[5-[3-cis-(trifluoromethoxy)cyclobutyl]-1,3,4-oxadiazol-2-yl]cyclohexyl]acetamide]	< 1

Same assay, conditions: Homo sapiens, 0.5 h; H4 ATF4-NLuc (clone 17) cells; compounds 30 minutes at 37 degree Celsius, then 50 um sodium arsenite for 6 additional hours; luminescence readout; read-out: IC50

Structure (SMILES)	IC50 [µM]
CC1(C)CC(OCC(=O)NC23CC(NC(=O)COc4ccc(Cl)cc4)(C2)C3)C1 [Example 5, 2-(4-chlorophenoxy)-N-(3-(2-(3,3-dimethylcyclobutoxy)acetamido)bicyclo[1.1.1]pentan-1-yl)acetamide]	< 1
N#CC1CC(OCC(=O)NC23CC(NC(=O)COc4ccc(Cl)cc4)(C2)C3)C1 (stereo not shown) [Example 6, 2-(4-chlorophenoxy)-N-(3-(2-(3-cyanocyclobutoxy)acetamido)bicyclo[1.1.1]pentan-1-yl)acetamide]	< 1
N#CC1CC(OCC(=O)NC23CC(NC(=O)COc4ccc(Cl)c(F)c4)(C2)C3)C1 (stereo not shown) [Example 7, 2-(4-chloro-3-fluorophenoxy)-N-(3-(2-(3-cyanocyclobutoxy)acetamido)bicyclo[1.1.1]pentan-1-yl)acetamide]	< 1
CC1(OCC(=O)NC23CC(NC(=O)COc4ccc(Cl)cc4)(C2)C3)CC(C#N)C1 (stereo not shown) [Example 8, 2-(4-chlorophenoxy)-N-(3-(2-(3-cyano-1-methylcyclobutoxy)acetamido)bicyclo[1.1.1]pentan-1-yl)acetamide]	1 to 10
O=C(COc1ccc(Cl)c(F)c1)NC12CC(NC(=O)COC3CC(F)C3)(C1)C2 (stereo not shown) [Example 9]	< 1
O=C(COc1ccc(Cl)c(F)c1)NC12CC(NC(=O)COC3CCC3)(C1)C2 [Example 10, 2-(4-chloro-3-fluorophenoxy)-N-(3-(2-cyclobutoxyacetamido)bicyclo[1.1.1]pentan-1-yl)acetamide]	< 1
CC1(C#N)CC(OCC(=O)NC23CC(NC(=O)COc4ccc(Cl)c(F)c4)(C2)C3)C1 (stereo not shown) [Example 11, 2-(4-chloro-3-fluorophenoxy)-N-(3-(2-(3-cyano-3-methylcyclobutoxy)acetamido)bicyclo[1.1.1]pentan-1-yl)acetamide]	< 1
N#CC1CC(OCC(=O)N2CCC3(CC2)CC(NC(=O)COc2ccc(Cl)c(F)c2)C3)C1 (stereo not shown) [Example 14, 2-(4-chloro-3-fluoro-phenoxy)-N-[7-[2-(3-cyanocyclobutoxy)acetyl]-7-azaspiro[3.5]nonan-2-yl]acetamide]	< 1
O=C(COc1ccc(Cl)c(F)c1)NC1CC2(CCN(C(=O)COC3CCC3)CC2)C1 [Example 15, 2-(4-chloro-3-fluoro-phenoxy)-N-[7-[2-(cyclobutoxy)acetyl]-7-azaspiro[3.5]nonan-2-yl]acetamide]	< 1
O=C(COc1ccc(Cl)c(F)c1)NC1CC2(CCN(C(=O)COC3CC(C(F)(F)F)C3)CC2)C1 (stereo not shown) [Example 16, 2-(4-chloro-3-fluoro-phenoxy)-N-[7-[2-[3-(trifluoromethyl)cyclobutoxy]acetyl]-7-azaspiro[3.5]nonan-2-yl]acetamide]	< 1
O=C(COc1ccc(Cl)c(F)c1)NC1CC2(C1)CN(C(=O)COC1CC(C(F)(F)F)C1)C2 (stereo not shown) [Example 17, 2-(4-chloro-3-fluoro-phenoxy)-N-[2-[2-[3-(trifluoromethyl)cyclobutoxy]acetyl]-2-azaspiro[3.3]heptan-6-yl]acetamide]	< 1
O=C(COc1ccc(Cl)c(F)c1)NC1CC2(C1)CN(C(=O)COC1CC(n3nccn3)C1)C2 (stereo not shown) [Example 18, 2-(4-chloro-3-fluoro-phenoxy)-N-[2-[2-[3-(triazol-2-yl)cyclobutoxy]acetyl]-2-azaspiro[3.3]heptan-6-yl]acetamide]	< 1
O=C(COc1ccc(Cl)c(F)c1)NC1CC2(C1)CN(C(=O)COC1CCC1)C2 [Example 19, 2-(4-chloro-3-fluoro-phenoxy)-N-[2-[2-(cyclobutoxy)acetyl]-2-azaspiro[3.3]heptan-6-yl]acetamide]	< 1
N#CC1CC(OCC(=O)N2CC3(CC(NC(=O)COc4ccc(Cl)c(F)c4)C3)C2)C1 (stereo not shown) [Example 20, 2-(4-chloro-3-fluoro-phenoxy)-N-[2-[2-(3-cyanocyclobutoxy)acetyl]-2-azaspiro[3.3]heptan-6-yl]acetamide]	< 1
O=C(COc1ccc(Cl)c(F)c1)NC1CC2(C1)CN(C(=O)COC1CC(OC(F)(F)F)C1)C2 (stereo not drawn) [Example 21, 2-(4-chloro-3-fluoro-phenoxy)-N-[2-[2-[3-cis-(trifluoromethoxy)cyclobutoxy]acetyl]-2-azaspiro[3.3]heptan-6-yl]acetamide]	< 1
O=C(COC1CC(OC(F)(F)F)C1)NC1CN(c2nnc(COc3ccc(Cl)c(F)c3)o2)C1 (stereo not drawn) [Example 22, N-[1-[5-[(4-chloro-3-fluoro-phenoxy)methyl]-1,3,4-oxadiazol-2-yl]azetidin-3-yl]-2-[3-cis-(trifluoromethoxy)cyclobutoxy]acetamide]	< 1
O=C(COc1ccc(Cl)c(F)c1)NC1CN(c2nnc(COC3CC(OC(F)(F)F)C3)o2)C1 (stereo not drawn) [Example 23, 2-(4-chloro-3-fluoro-phenoxy)-N-[1-[5-[[3-cis-(trifluoromethoxy)cyclobutoxy]methyl]-1,3,4-oxadiazol-2-yl]azetidin-3-yl]acetamide]	< 1
O=C(COc1ccc(Cl)c(F)c1)NC1CN(C(=O)COC2CC(OC(F)(F)F)C2)C1 (stereo not drawn) [Example 24, 2-(4-chloro-3-fluoro-phenoxy)-N-[1-[2-[3-cis-(trifluoromethoxy)cyclobutoxy]acetyl]azetidin-3-yl]acetamide]	1 to 10
O=C(CO[C@H]1C[C@@H](OC(F)(F)F)C1)NC1CN(C(=O)COC2CC(OC(F)(F)F)C2)C1 (stereo partly drawn) [Example 25, 2-[3-cis (trifluoromethoxy)cyclobutoxy]-N-[1-[2-[3-cis-(trifluoromethoxy)cyclobutoxy]acetyl]azetidin-3-yl]acetamide]	1 to 10
O=C(COc1ccc(Cl)c(F)c1)NC1CCN(c2nnc(C3CC(OC(F)(F)F)C3)o2)CC1 (stereo not drawn) [Example 26, 2-(4-chloro-3-fluoro-phenoxy)-N-[1-[5-[3-cis-(trifluoromethoxy)cyclobutyl]-1,3,4-oxadiazol-2-yl]-4-piperidyl]acetamide]	< 1
O=C(COc1ccc(Cl)c(F)c1)NC1CCN(CCO[C@H]2C[C@@H](OC(F)(F)F)C2)CC1 [Example 27, 2-(4-chloro-3-fluoro-phenoxy)-N-[1-[2-[3-cis-(trifluoromethoxy)cyclobutoxy]ethyl]-4-piperidyl]acetamide]	< 1
O=C(COc1ccc(Cl)c(F)c1)N[C@H]1CC[C@H](c2nnc(C3CC(OC(F)(F)F)C3)o2)CC1 (stereo partly drawn) [Example 28, 2-(4-chloro-3-fluoro-phenoxy)-N-[4-[5-[3-cis-(trifluoromethoxy)cyclobutyl]-1,3,4-oxadiazol-2-yl]cyclohexyl]acetamide]	< 1
O=C(COC1CC(OC(F)(F)F)C1)N[C@H]1CC[C@H](c2nnc(C3CC(OC(F)(F)F)C3)o2)CC1 (stereo partly drawn) [Example 30, 2-[3-cis-(trifluoromethoxy)cyclobutoxy]-N-[4-[5-[3-cis-(trifluoromethoxy)cyclobutyl]-1,3,4-oxadiazol-2-yl]cyclohexyl]acetamide]	< 1
O=C(COC1CC(OC(F)(F)F)C1)NC1CC2(C1)CC(c1nnc(C3CC(OC(F)(F)F)C3)o1)C2 (stereo not drawn) [Example 32, 2-[3-cis-(trifluoromethoxy)cyclobutoxy]-N-[6-[5-[3-cis-(trifluoromethoxy)cyclobutyl]-1,3,4-oxadiazol-2-yl]spiro[3.3]heptan-2-yl]acetamide]	< 1
O=C(COc1ccc(Cl)c(F)c1)NC1CC2(C1)CC(c1nnc(C3CC(OC(F)(F)F)C3)o1)C2 (stereo not drawn) [Example 33, 2-(4-chloro-3-fluoro-phenoxy)-N46-[5-[3-cis-(trifluoromethoxy)cyclobutyl]-1,3,4-oxadiazol-2-yl]spiro[3.3]heptan-2-yl)acetamide]	< 1
